Laboratory results published in article PMC6222422, “Synthesis and Biological Evaluation of Novel Indole-Derived Thioureas” (Molecules : A Journal of Synthetic Chemistry and Natural …, 2018).
Values after ≈ are worked out from the molar mass of the structure shown.

Key:
M. luteus ATCC 10240 [1] = experiment: MIC, twofold serial agar dilution; type: cell-based; details: Micrococcus luteus, ATCC10240, 18 h, 35 °C, read-out: minimal inhibitory concentrations (MIC)
HSV-1 = experiment: microbe, parasite or virus in culture; type: cell-based, human herpes 1; details: Human alphaherpesvirus 1, Vero 76, read-out: HSV-1 EC50
S. aureus ATCC 29213 [2] = experiment: MIC, twofold serial agar dilution; type: cell-based; details: Staphylococcus aureus, ATCC29213, 18 h, 35 °C, read-out: minimal inhibitory concentrations (MIC)
S. aureus ATCC 6538 [3] = experiment: disc diffusion method; type: cell-based, Staphylococcus aureus; details: Staphylococcus aureus, ATCC6538, applied 400 µg per disc, dash = lack of the growth inhibition area, read-out: diameter of growth inhibitory zone (GIZ)
S. epidermidis (MRSE) = experiment: MIC against hospital strains; details: Staphylococcus epidermidis
S. aureus NCTC 4163 [4] = experiment: MIC, twofold serial agar dilution; type: cell-based; details: Staphylococcus aureus, NCTC4163, 18 h, 35 °C, read-out: minimal inhibitory concentrations (MIC)
B. cereus ATCC 11778 [5] = experiment: MIC, twofold serial agar dilution; type: cell-based; details: Bacillus cereus, ATCC11778, 18 h, 35 °C, read-out: minimal inhibitory concentrations (MIC)
Reo-1 = experiment: microbe, parasite or virus in culture; type: cell-based, reovirus type-1; details: Reovirus sp., BHK, read-out: Reo-1 EC50
M. luteus ATCC 10240 [6] = experiment: disc diffusion method; type: cell-based, Micrococcus luteus; details: Micrococcus luteus, ATCC10240, applied 400 µg per disc, dash = lack of the growth inhibition area, read-out: diameter of growth inhibitory zone (GIZ)
in vitro [7] = details: African green monkey (Cercopithecus aethiops)
B. subtilis ATCC 6633 [8] = experiment: disc diffusion method; type: cell-based, Bacillus subtilis; details: Bacillus subtilis, ATCC6633, applied 400 µg per disc, dash = lack of the growth inhibition area, read-out: diameter of growth inhibitory zone (GIZ)
B. subtilis ATCC 6633 [9] = experiment: MIC, twofold serial agar dilution; type: cell-based; details: Bacillus subtilis, ATCC6633, 18 h, 35 °C, read-out: minimal inhibitory concentrations (MIC)
M. luteus ATCC 9341 [10] = experiment: MIC, twofold serial agar dilution; type: cell-based; details: Micrococcus luteus, ATCC9341, 18 h, 35 °C, read-out: minimal inhibitory concentrations (MIC)
VSV = experiment: microbe, parasite or virus in culture; type: cell-based; details: Vesicular stomatitis virus, Vero 76, read-out: VSV EC50
B. cereus ATCC 11778 [11] = experiment: disc diffusion method; type: cell-based, Bacillus cereus; details: Bacillus cereus, ATCC11778, applied 400 µg per disc, dash = lack of the growth inhibition area, read-out: diameter of growth inhibitory zone (GIZ)
VV = experiment: microbe, parasite or virus in culture; type: cell-based; details: Orthopoxvirus vaccinia, Vero 76, read-out: VV EC50
in vitro [12] = details: human
in vitro [13] = details: Syrian hamster (Mesocricetus auratus)
in vitro [14] = details: cattle (Bos taurus)
S. aureus ATCC 25923 [15] = experiment: MIC, twofold serial agar dilution; type: cell-based; details: Staphylococcus aureus, ATCC25923, 18 h, 35 °C, read-out: minimal inhibitory concentrations (MIC)
M. luteus ATCC 9341 [16] = experiment: disc diffusion method; type: cell-based, Micrococcus luteus; details: Micrococcus luteus, ATCC9341, applied 400 µg per disc, dash = lack of the growth inhibition area, read-out: diameter of growth inhibitory zone (GIZ)
RSV = experiment: microbe, parasite or virus in culture; type: cell-based, human respiratory syncytial virus; details: for EC50: human respiratory syncytial virus, Vero 76, read-out: RSV EC50
S. aureus ATCC 6538 [17] = experiment: MIC, twofold serial agar dilution; type: cell-based; details: Staphylococcus aureus, ATCC6538, 18 h, 35 °C, read-out: minimal inhibitory concentrations (MIC)
HIV-1 = experiment: microbe, parasite or virus in culture; details: Human immunodeficiency virus 1, MT4, read-out: HIV-1 EC50
S. aureus NCTC 4163 [18] = experiment: disc diffusion method; type: cell-based, Staphylococcus aureus; details: Staphylococcus aureus, NCTC4163, applied 400 µg per disc, dash = lack of the growth inhibition area, read-out: diameter of growth inhibitory zone (GIZ)
YFV = experiment: microbe, parasite or virus in culture; type: cell-based; details: Yellow fever virus, BHK, read-out: YFV EC50
S. aureus ATCC 25923 [19] = experiment: disc diffusion method; type: cell-based, Staphylococcus aureus; details: Staphylococcus aureus, ATCC25923, applied 400 µg per disc, dash = lack of the growth inhibition area, read-out: diameter of growth inhibitory zone (GIZ)
CV-B5 = experiment: microbe, parasite or virus in culture; type: cell-based, coxsackievirus B5; details: Enterovirus B, CVB5, Vero 76, read-out: CV-B5 EC50
Sb-1 = experiment: microbe, parasite or virus in culture; type: cell-based, poliovirus type-1; details: Enterovirus C, Vero 76, read-out: Sb-1 EC50
S. aureus ATCC 29213 [20] = experiment: disc diffusion method; type: cell-based, Staphylococcus aureus; details: Staphylococcus aureus, ATCC29213, applied 400 µg per disc, dash = lack of the growth inhibition area, read-out: diameter of growth inhibitory zone (GIZ)
BVDV = experiment: microbe, parasite or virus in culture; type: cell-based, bovine viral diarrhoea virus; details: Bovine viral diarrhea virus isolates and strains, MDBK, in Bos taurus, read-out: BVDV EC50
Cytotoxicity, MTT method [21] = details: Syrian hamster (Mesocricetus auratus)
Cytotoxicity, MTT method [22] = details: cattle (Bos taurus)
Cytotoxicity, MTT method [23] = details: African green monkey (Cercopithecus aethiops)
Cytotoxicity, MTT method [24] = details: human

S=C(NCCc1c[nH]c2ccccc12)Nc1ccccc1Br [Compound 15, 1-(2-(1H-Indol-3-yl)ethyl)-3-(2-bromophenyl)thiourea]
MIC (M. luteus ATCC 10240 [1]): 50 µg/mL (≈ 134 µM)
EC50 (HSV-1): > 46 µM
MIC (S. aureus ATCC 29213 [2]): 50 µg/mL (≈ 134 µM)
zone of inhibition at 400 µg/disc (S. aureus ATCC 6538 [3]): 12 mm
MIC (S. epidermidis (MRSE); hospital S. epidermidis MRSE strain 430/11): 400 µg/mL (≈ 1070 µM)
MIC (S. epidermidis (MRSE); hospital S. epidermidis MRSE strain 431/11): 50 µg/mL (≈ 134 µM)
MIC (S. epidermidis (MRSE); hospital S. epidermidis MRSE strain 432/11): 50 µg/mL (≈ 134 µM)
MIC (S. epidermidis (MRSE); hospital S. epidermidis MRSE strain 433/11): 50 µg/mL (≈ 134 µM)
MIC (S. epidermidis (MRSE); hospital S. epidermidis MRSE strain 434/11): 50 µg/mL (≈ 134 µM)
MIC (S. epidermidis (MRSE); hospital S. epidermidis MRSE strain 435/11): 100 µg/mL (≈ 267 µM)
MIC (S. epidermidis (MRSE); hospital S. epidermidis MRSE strain 436/11): 100 µg/mL (≈ 267 µM)
MIC (S. epidermidis (MRSE); hospital S. epidermidis MRSE strain 437/11): 100 µg/mL (≈ 267 µM)
MIC (S. epidermidis (MRSE); hospital S. epidermidis MRSE strain 438/11): 200 µg/mL (≈ 534 µM)
MIC (S. epidermidis (MRSE); hospital S. epidermidis MRSE strain 439/11): 50 µg/mL (≈ 134 µM)
MIC (S. aureus NCTC 4163 [4]): 50 µg/mL (≈ 134 µM)
MIC (B. cereus ATCC 11778 [5]): 50 µg/mL (≈ 134 µM)
EC50 (Reo-1): > 28 µM
zone of inhibition at 400 µg/disc (M. luteus ATCC 10240 [6]): 14 mm
CC50 (in vitro [7]): 46 µM
melting point: 150 to 152 °C
zone of inhibition at 400 µg/disc (B. subtilis ATCC 6633 [8]): 15 mm
MIC (B. subtilis ATCC 6633 [9]): 50 µg/mL (≈ 134 µM)
MIC (M. luteus ATCC 9341 [10]): 200 µg/mL (≈ 534 µM)
EC50 (VSV): > 46 µM
zone of inhibition at 400 µg/disc (B. cereus ATCC 11778 [11]): 14 mm
EC50 (VV): > 46 µM
CC50 (in vitro [12]): 46 µM
CC50 (in vitro [13]): 28 µM
CC50 (in vitro [14]): 48 µM
MIC (S. aureus ATCC 25923 [15]): 100 µg/mL (≈ 267 µM)
zone of inhibition at 400 µg/disc (M. luteus ATCC 9341 [16]): 13 mm
activity against RSV (in words) (RSV): moderately active
EC50 (RSV): 20 ± 2.5 µM
MIC (S. aureus ATCC 6538 [17]): 50 µg/mL (≈ 134 µM)
EC50 (HIV-1): > 46 µM
zone of inhibition at 400 µg/disc (S. aureus NCTC 4163 [18]): 11 mm
EC50 (YFV): > 28 µM
zone of inhibition at 400 µg/disc (S. aureus ATCC 25923 [19]): 11 mm
EC50 (CV-B5): > 46 µM
EC50 (Sb-1): > 46 µM
zone of inhibition at 400 µg/disc (S. aureus ATCC 29213 [20]): 11 mm
EC50 (BVDV): > 48 µM

C[C@@]1(O)[C@H](O)[C@@H](CO)O[C@H]1n1cnc2c(=O)[nH]c(N)nc21 [2′-C-methyl-guanosine, 2′-C-methylguanosine, reference compound]
CC50 (Cytotoxicity, MTT method [21]): > 10 µM
CC50 (Cytotoxicity, MTT method [22]): > 10 µM
EC50 (YFV): 1.9 ± 0.1 µM
EC50 (BVDV): 1.1 ± 0.1 µM

Cc1ccc(NC(=S)NCCc2c[nH]c3ccccc23)cc1 [Compound 3, 1-(2-(1H-Indol-3-yl)ethyl)-3-(4-methylphenyl)thiourea]
CC50 (Cytotoxicity, MTT method [23]): 75 µM
EC50 (HSV-1): > 75 µM
CC50 (Cytotoxicity, MTT method [21]): 16 µM
EC50 (Reo-1): > 16 µM
EC50 (VSV): > 75 µM
EC50 (VV): > 75 µM
CC50 (Cytotoxicity, MTT method [22]): > 100 µM
activity against RSV (in words) (RSV): moderately active
EC50 (RSV): 20 ± 3 µM
EC50 (HIV-1): > 33 µM
EC50 (YFV): > 16 µM
CC50 (Cytotoxicity, MTT method [24]): 33 µM
EC50 (CV-B5): > 75 µM
EC50 (Sb-1): > 75 µM
EC50 (BVDV): ≥ 100 µM

COc1ccc(NC(=S)NCCc2c[nH]c3ccccc23)cc1 [Compound 2, 1-(2-(1H-Indol-3-yl)ethyl)-3-(4-methoxyphenyl)thiourea]
CC50 (Cytotoxicity, MTT method [23]): 56 µM
EC50 (HSV-1): > 56 µM
CC50 (Cytotoxicity, MTT method [21]): 44 µM
EC50 (Reo-1): > 44 µM
melting point: 146 to 148 °C
EC50 (VSV): > 56 µM
EC50 (VV): > 56 µM
CC50 (Cytotoxicity, MTT method [22]): > 100 µM
EC50 (RSV): > 56 µM
EC50 (HIV-1): > 32 µM
EC50 (YFV): > 44 µM
CC50 (Cytotoxicity, MTT method [24]): 32 µM
EC50 (CV-B5): > 56 µM
EC50 (Sb-1): > 56 µM
EC50 (BVDV): > 100 µM
